The target of assay [1] is T1, G12C-mutant human KRAS (amino acid residues 1-188) (Homo sapiens, UniProt P01116, G12C).
T1 construct: G12D or G12C-mutant human KRAS (amino acid residues 1-188) with FLAG tag; made in house; host or cells: E. coli
As to the kind of experiment: KRAS Binding Disruption Assay (AlphaScreen; biotinylated KRpep-2d analogue or RAF1-RBD), G12C. As to conditions: geometric mean, read-out: KRAS GMean IC50 (uM) MUTATION: G12C. The protocol: Compound binding disrupts the interaction of KRpep-2d or RAF1-RBD with KRAS, leading to a decrease in Alpha signal.
All assay components were prepared in 20 mM HEPES (pH 7.5), 100 mM NaCl, 5 mM MgCl2, 0.01% Tween-20, and 0.01% BSA. Biotinylated analogues of KRpep-2d were custom synthesized. The binding disruption assays were performed using 5-20 nM of mutant KRAS and 5-20 nM of either biotinylated KRpep-2d analogue or RAF1-RBD. 19 μL of KRAS protein and 4 μL of biotinylated KRpep-2d or RAF1-RBD were added to the wells of a 384-well plate containing 1 μL of various concentrations of test compound or DMSO vehicle. 16 wells containing KRAS, biotinylated KRpep-2d or RAF1-RBD, and 5% DMSO served as high controls. 16 wells containing KRAS only and 5% DMSO served as low controls. Binding reactions were incubated for 1 hour at 25° C., then Anti-Flag Acceptor and Streptavidin Donor Alpha beads were added at a final concentration of 10 μg/mL for an additional hour at room temperature. Alpha signal was read out on a Perkin Elmer Envision HTS instrument. The percentage inhibition at individual compound concentrations relative to high and low controls was calculated. The data were analyzed by using nonlinear regression to generate IC50 values.

Assay [2] addresses T2, G12D-mutant human KRAS (amino acid residues 1-188) (Homo sapiens, UniProt P01116, G12D).
T2 construct: G12D or G12C-mutant human KRAS (amino acid residues 1-188) with FLAG tag; made in house; host or cells: E. coli
The experiment in a line: KRAS Binding Disruption Assay (AlphaScreen; biotinylated KRpep-2d analogue or RAF1-RBD), G12D. As to conditions: KRAS G12D; geometric mean; read-out: KRAS GMean IC50 (uM) MUTATION: G12D. A digest of the protocol:
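Compounds are titrated against 5-20 nM mutant KRAS and 5-20 nM of either a biotinylated KRpep-2d analogue or RAF1-RBD, incubated 1 h at 25° C. Disruption is detected as reduced Alpha signal after 1 h with donor and acceptor beads at 10 μg/mL.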
In general terms: Bead proximity is the source of the signal in Alpha formats.

T1 sequence (P01116 1-188 isoform P01116-2 G12C): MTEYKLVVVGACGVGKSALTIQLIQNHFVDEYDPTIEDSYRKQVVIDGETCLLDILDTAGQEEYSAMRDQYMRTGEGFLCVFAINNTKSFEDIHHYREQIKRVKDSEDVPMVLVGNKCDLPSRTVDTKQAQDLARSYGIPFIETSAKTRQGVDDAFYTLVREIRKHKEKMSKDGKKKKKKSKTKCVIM
T2 sequence (P01116 1-188 isoform P01116-2 G12D): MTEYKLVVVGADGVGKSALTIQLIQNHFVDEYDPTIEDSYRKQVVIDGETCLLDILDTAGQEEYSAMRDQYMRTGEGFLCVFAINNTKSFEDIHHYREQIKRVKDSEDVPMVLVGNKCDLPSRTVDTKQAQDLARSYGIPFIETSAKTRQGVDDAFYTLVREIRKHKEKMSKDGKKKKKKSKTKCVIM

Take `NC(=O)CCN1[C@@H]2CC[C@H]1CN(c1nc(OCC34CCCN3CCC4)nc3c(F)c(-c4cc(O)cc5ccccc45)ccc13)C2` [P-0642, 3-((1R,5S)-3-(8-fluoro-7-(3-hydroxynaphthalen-1-yl)-2-((tetrahydro-1H-pyrrolizin-7a(5H)-yl)methoxy)quinazolin-4-yl)-3,8-diazabicyclo[3.2.1]octan-8-yl)propanamide]: the IC50 in assay [1] and in assay [2] was 0.0001 to 10 µM in each case.

For `CN1CC2(C1)CN(c1nc(N3C[C@H]4CC[C@@H](C3)N4)c3ccc(-c4cc(O)cc5ccccc45)c(F)c3n1)C2` [P-0643, 4-(4-((1R,5S)-3,8-diazabicyclo[3.2.1]octan-3-yl)-8-fluoro-2-(6-methyl-2,6-diazaspiro[3.3]heptan-2-yl)quinazolin-7-yl)naphthalen-2-ol], the 50% inhibitory concentration (IC50) (commonly the concentration that gives 50% inhibition) in assay [1] fell in the range of 10 to 100 µM; in assay [2], 0.0001 to 10 µM.

On to `Fc1cc2c(N3C[C@H]4CC[C@@H](C3)N4)nc(OCC34CCCN3CCC4)nc2c(F)c1-c1c(Cl)cnc2[nH]ccc12` [P-0645, 4-((1R,5S)-3,8-diazabicyclo[3.2.1]octan-3-yl)-7-(5-chloro-1H-pyrrolo[2,3-b]pyridin-4-yl)-6,8-difluoro-2-((tetrahydro-1H-pyrrolizin-7a(5H)-yl)methoxy)quinazoline], for which the IC50 in assay [1] lay in the range of 10 to 100 µM; in assay [2] it was 0.0001 to 10 µM.

Regarding `Cc1ccc2[nH]cc(-c3ccc4c(N5C[C@H]6CC[C@@H](C5)N6)nc(OCC56CCCN5CCC6)nc4c3F)c2c1F` [P-0646, 4-((1R,5S)-3,8-diazabicyclo[3.2.1]octan-3-yl)-8-fluoro-7-(4-fluoro-5-methyl-1H-indol-3-yl)-2-((tetrahydro-1H-pyrrolizin-7a(5H)-yl)methoxy)quinazoline], the IC50 in assay [1] and in assay [2] was 0.0001 to 10 µM each time.

Regarding `CC(C)(COc1nc(N2C[C@H]3CC[C@@H](C2)N3)c2ccc(-c3cc(O)cc4ccccc34)c(F)c2n1)C(=O)O` [P-0647, 3-((4-((1R,5S)-3,8-diazabicyclo[3.2.1]octan-3-yl)-8-fluoro-7-(3-hydroxynaphthalen-1-yl)quinazolin-2-yl)oxy)-2,2-dimethylpropanoic acid], the IC50 in assay [1] lay within 10 to 100 µM; in assay [2], 0.0001 to 10 µM.

Regarding `COC(=O)C(C)(C)COc1nc(N2C[C@H]3CC[C@@H](C2)N3)c2ccc(-c3cc(O)cc4ccccc34)c(F)c2n1` [P-0648, methyl 3-((4-((1R,5S)-3,8-diazabicyclo[3.2.1]octan-3-yl)-8-fluoro-7-(3-hydroxynaphthalen-1-yl)quinazolin-2-yl)oxy)-2,2-dimethylpropanoate], the IC50 in assay [1] lay within 10 to 100 µM; in assay [2], 0.0001 to 10 µM.

`Oc1cc(-c2ccc3c(N4C[C@H]5CC[C@@H](C4)N5)nc(OCCN4CCC(F)(F)C4)nc3c2F)c2ccccc2c1` [P-0649, 4-(4-((1R,5S)-3,8-diazabicyclo[3.2.1]octan-3-yl)-2-(2-(3,3-difluoropyrrolidin-1-yl)ethoxy)-8-fluoroquinazolin-7-yl)naphthalen-2-ol]: the half-maximal inhibitory concentration (IC50) in assay [1] and in assay [2] was 0.0001 to 10 µM in each case.

For the compound `Oc1cc(-c2ccc3c(N4C[C@H]5CC[C@@H](C4)N5)nc(OCC4CC(O)C4)nc3c2F)c2ccccc2c1` (stereo partly drawn) [P-0650, 4-(4-((1R,5S)-3,8-diazabicyclo[3.2.1]octan-3-yl)-8-fluoro-2-((3-hydroxycyclobutyl)methoxy)quinazolin-7-yl)naphthalen-2-ol], the IC50 in assay [1] and in assay [2] was 0.0001 to 10 µM in each case.

On to `OCC1(COc2nc(N3C[C@H]4CC[C@@H](C3)N4)c3ccc(-c4cc(O)cc5ccccc45)c(F)c3n2)CCC1` [P-0651, 4-(4-((1R,5S)-3,8-diazabicyclo[3.2.1]octan-3-yl)-8-fluoro-2-((1-(hydroxymethyl)cyclobutyl)methoxy)quinazolin-7-yl)naphthalen-2-ol], for which the IC50 in assay [1] and in assay [2] was 0.0001 to 10 µM each time.

For `OCCCOc1nc(N2C[C@H]3CC[C@@H](C2)N3)c2ccc(-c3cc(O)cc4ccccc34)c(F)c2n1` [P-0652, 4-(4-((1R,5S)-3,8-diazabicyclo[3.2.1]octan-3-yl)-8-fluoro-2-(3-hydroxypropoxy)quinazolin-7-yl)naphthalen-2-ol], the IC50 in assay [1] lay within 10 to 100 µM; in assay [2], 0.0001 to 10 µM.

Turning to `Fc1c(-c2c[nH]c3cccc(CC4CC4)c23)ccc2c(N3C[C@H]4CC[C@@H](C3)N4)nc(OCC34CCCN3CCC4)nc12` [P-0653, 4-((1R,5S)-3,8-diazabicyclo[3.2.1]octan-3-yl)-7-(4-(cyclopropylmethyl)-1H-indol-3-yl)-8-fluoro-2-((tetrahydro-1H-pyrrolizin-7a(5H)-yl)methoxy)quinazoline], the IC50 in assay [1] and in assay [2] was 0.0001 to 10 µM in each case.

On to `CN1CCC[C@H]1COc1nc(N2C[C@H]3CC[C@@H](C2)N3)c2ccc(-c3c[nH]c4cccc(Cl)c34)c(F)c2n1` [P-0654, 4-((1R,5S)-3,8-diazabicyclo[3.2.1]octan-3-yl)-7-(4-chloro-1H-indol-3-yl)-8-fluoro-2-(((S)-1-methylpyrrolidin-2-yl)methoxy)quinazoline], for which the 50% inhibitory concentration (IC50) fell in the range of 10 to 100 µM in assay [1] and 0.0001 to 10 µM in assay [2].

For the compound `O=C(CCO)Nc1nc(N2C[C@H]3CC[C@@H](C2)N3)c2ccc(-c3cc(O)cc4ccccc34)c(F)c2n1` [P-0655, N-(4-((1R,5S)-3,8-diazabicyclo[3.2.1]octan-3-yl)-8-fluoro-7-(3-hydroxynaphthalen-1-yl)quinazolin-2-yl)-3-hydroxypropanamide], the IC50 in assay [1] is 100 to 1000 µM; in assay [2], 0.0001 to 10 µM.

As for `CC(C)(O)CCOc1nc(N2C[C@H]3CC[C@@H](C2)N3)c2ccc(-c3cc(O)cc4ccccc34)c(F)c2n1` [P-0656, 4-(4-((1R,5S)-3,8-diazabicyclo[3.2.1]octan-3-yl)-8-fluoro-2-(3-hydroxy-3-methylbutoxy)quinazolin-7-yl)naphthalen-2-ol], the figures for the IC50 in assay [1] and in assay [2] were 10 to 100 µM and 0.0001 to 10 µM, respectively.

`COC1CN(c2nc(N3C[C@H]4CC[C@@H](C3)N4)c3ccc(-c4cc(O)cc5ccccc45)c(F)c3n2)C1` [P-0658, 4-(4-((1R,5S)-3,8-diazabicyclo[3.2.1]octan-3-yl)-8-fluoro-2-(3-methoxyazetidin-1-yl)quinazolin-7-yl)naphthalen-2-ol]: the values for the IC50 in assay [1] and in assay [2] were 100 to 1000 µM and 0.0001 to 10 µM, respectively.

Consider `CN1C[C@H](O)C[C@H]1COc1nc(N2C[C@H]3CC[C@@H](C2)N3)c2ccc(-c3cc(O)cc4ccccc34)c(F)c2n1` [P-0659, (3R,5S)-5-(((4-((1R,5S)-3,8-diazabicyclo[3.2.1]octan-3-yl)-8-fluoro-7-(3-hydroxynaphthalen-1-yl)quinazolin-2-yl)oxy)methyl)-1-methylpyrrolidin-3-ol], for which the IC50 in assay [1] and in assay [2] was 0.0001 to 10 µM in each case.

With `NC(=O)N1[C@@H]2CC[C@H]1CN(c1nc(OCC34CCCN3CCC4)nc3c(F)c(-c4cc(O)cc5ccccc45)ccc13)C2` [P-0660, (1R,5S)-3-(8-fluoro-7-(3-hydroxynaphthalen-1-yl)-2-((tetrahydro-1H-pyrrolizin-7a(5H)-yl)methoxy)quinazolin-4-yl)-3,8-diazabicyclo[3.2.1]octane-8-carboxamide], the IC50 in assay [1] and in assay [2] was 0.0001 to 10 µM in each case.

As to `NS(=O)(=O)N1[C@@H]2CC[C@H]1CN(c1nc(OCC34CCCN3CCC4)nc3c(F)c(-c4cc(O)cc5ccccc45)ccc13)C2` [P-0662, (1R,5S)-3-(8-fluoro-7-(3-hydroxynaphthalen-1-yl)-2-((tetrahydro-1H-pyrrolizin-7a(5H)-yl)methoxy)quinazolin-4-yl)-3,8-diazabicyclo[3.2.1]octane-8-sulfonamide], the IC50 in assay [1] and in assay [2] was 0.0001 to 10 µM throughout.

With `CN1CCC[C@H]1COc1nc(N2C[C@H]3CC[C@@H](C2)N3S(N)(=O)=O)c2ccc(-c3cc(O)cc4ccccc34)c(F)c2n1` [P-0663, (1R,5S)-3-(8-fluoro-7-(3-hydroxynaphthalen-1-yl)-2-(((S)-1-methylpyrrolidin-2-yl)methoxy)quinazolin-4-yl)-3,8-diazabicyclo[3.2.1]octane-8-sulfonamide], the IC50 in assay [1] and in assay [2] was 0.0001 to 10 µM each time.

For the compound `N#Cc1cccc2[nH]cc(-c3ccc4c(N5C[C@H]6CC[C@@H](C5)N6)nc(OCC56CCCN5CCC6)nc4c3F)c12` [P-0666, 3-(4-((1R,5S)-3,8-diazabicyclo[3.2.1]octan-3-yl)-8-fluoro-2-((tetrahydro-1H-pyrrolizin-7a(5H)-yl)methoxy)quinazolin-7-yl)-1H-indole-4-carbonitrile], the IC50 in assay [1] and in assay [2] was 0.0001 to 10 µM in each case.

Turning to `CCN1CCC[C@H]1COc1nc(N2C[C@H]3CC[C@@H](C2)N3)c2ccc(-c3cc(O)cc4ccccc34)c(F)c2n1` [P-0667, 4-(4-((1R,5S)-3,8-diazabicyclo[3.2.1]octan-3-yl)-2-(((S)-1-ethylpyrrolidin-2-yl)methoxy)-8-fluoroquinazolin-7-yl)naphthalen-2-ol], the IC50 in assay [1] and in assay [2] was 0.0001 to 10 µM each time.

The values above are taken from patent US20230081426A1, “COMPOUNDS AND METHODS FOR KRAS MODULATION AND INDICATIONS THEREFOR” (Plexxikon Inc., priority 2020, published 2023).
